Assay: UV absorption in ethanol
Type: physicochemical
Conditions: for E1% / εmax: at λmax

| SMILES | λmax | E1% | εmax | E1% (listed as Example 2) | εmax (listed as Example 2) |
| --- | --- | --- | --- | --- | --- |
| COc1ccc(C=C(C(=O)OC[Si](C)(C)C)C(=O)OC[Si](C)(C)C)cc1 [Example 13, di(methyltrimethylsilanyl) 2-(4-methoxybenzylidene)malonate] | λmax = 313 nm, | E1% = 653. | εmax = 25 770, | – | – |
| CCOC(=O)C(=Cc1ccc(OC[Si](C)(C)C)cc1)C(=O)OCC [Example 3, diethyl 2-(4-trimethylsilanylmethoxy)benzylidenemalonate] | λmax = 316 nm, | E1% = 750. | εmax = 26 290, | – | – |
| CC(C)(C)COC(=O)C(=Cc1ccc(OC[Si](C)(C)C)cc1)C(=O)OCC(C)(C)C [Example 5, dineopentyl 2-(4-trimethylsilanylmethoxy)benzylidenemalonate] | λmax = 317 nm, | E1% = 592. | εmax = 25 730, | – | – |
| COC(=O)C(=Cc1ccc(OC[Si](C)(C)COc2ccc(C=C(C(=O)OC)C(=O)OC)cc2)cc1)C(=O)OC [Example 9, dimethyl 2-(4-{[({4-[3-methoxy-2-(methoxycarbonyl)-3-oxoprop-1-enyl]phenoxy}methyl)(dimethyl)silyl]methoxy}benzylidene)malonate] | λmax = 316 nm, | E1% = 903. | εmax = 50 270, | – | – |
| CC1(C)OC(=O)C(=Cc2ccc(OC[Si](C)(C)C)cc2)C(=O)O1 [Example 6, 2,2-dimethyl-5-[4-(trimethylsilanylmethoxy)benzylidene]-1,3-dioxane-4,6-dione] | λmax = 370 nm, | E1% = 756. | εmax = 25 230, | – | – |
| CCCCC(CC)COC(=O)C(=Cc1ccc(OC[Si](C)(C)C)c(OC)c1)C(=O)OCC(CC)CCCC (centres unmarked) [Example 7, bis(2-ethylhexyl) 2-[3-methoxy-4-(trimethylsilanylmethoxy)benzylidene]malonate] | λmax = 331 nm, | E1% = 331. | εmax = 18 170, | – | – |
| CC(C)COC(=O)C(=Cc1ccc(OC[Si](C)(C)C)cc1)C(=O)OCC(C)C [Example 4, diisobutyl 2-(4-trimethylsilanylmethoxy)benzylidenemalonate] | λmax = 316 nm, | E1% = 663. | εmax = 26 960, | – | – |
| COC(=O)C(=Cc1ccc(OC[Si](C)(C)C)cc1)C(=O)OC [Example 1, dimethyl 2-(4-trimethylsilanylmethoxy)benzylidenemalonate] | λmax = 317 nm, | E1% = 840. | εmax = 27 085, | E1% = 820. | εmax = 26 440, |
| CC(C)OC(=O)/C=C/c1ccc(OC[Si](C)(C)C)cc1 [Example 11, isopropyl 2-(4-trimethylsilanylmethoxy)cinnamate] | λmax = 310 nm, | E1% = 711. | εmax = 20 800, | – | – |
| C[Si](C)(C)COc1ccc(C=C(C(N)=O)C(N)=O)cc1 [Example 10, 2-[4-(trimethylsilanylmethoxy)benzylidene]malonamide] | λmax = 310 nm, | E1% = 696. | εmax = 20 350, | – | – |

— patent publication US7354571B2, “Photoprotective compositions comprising methyltrialkylsilanes containing a cinnamate, cinnamamide, benzalmalonamide or benzalmalonate function” (L'Oreal, priority 2003, dated 2008)
